Publication PMC7180638, “Synthesis of Pyrrolidine Monocyclic Analogues of Pochonicine and Its Stereoisomers: Pursuit of Simplified Structures and Potent β-N-Acetylhexosaminidase Inhibition” (Molecules, 2020)
Counter-ions that a name gives are not always drawn. Like-named read-outs stand apart in the source and are kept apart here.

What was measured:
Assay type in all cases: biochemical
[1] = target: T1, α-L-Fucosidase (Bovine kidney) (Bos taurus, UniProt Q2KIM0); experiment: α-L-Fucosidase (bovine kidney) inhibition
T1 construct: purchased Sigma-Aldrich Chemical Co; host or cells: bovine kidney
T1 sequence (Q2KIM0 23-468): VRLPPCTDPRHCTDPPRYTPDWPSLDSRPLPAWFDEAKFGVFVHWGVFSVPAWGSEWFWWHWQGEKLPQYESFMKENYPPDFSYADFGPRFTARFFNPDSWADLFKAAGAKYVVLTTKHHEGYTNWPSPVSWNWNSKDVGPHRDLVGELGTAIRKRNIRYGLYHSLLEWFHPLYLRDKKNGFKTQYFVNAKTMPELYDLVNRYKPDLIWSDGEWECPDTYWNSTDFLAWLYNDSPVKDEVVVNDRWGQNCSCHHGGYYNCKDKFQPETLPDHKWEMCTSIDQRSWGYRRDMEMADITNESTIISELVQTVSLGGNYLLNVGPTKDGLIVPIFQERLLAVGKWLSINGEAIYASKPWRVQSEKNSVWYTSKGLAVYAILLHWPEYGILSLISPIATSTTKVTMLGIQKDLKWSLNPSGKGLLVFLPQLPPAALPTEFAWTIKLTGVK
Procedure: (§1) With rat intestinal maltase as an exception, other enzymes were purchased from Sigma-Aldrich Chemical Co. (St. Louis, MO, USA). Brush border membranes prepared from rat small intestine according to the method of Kessler et al. were assayed at pH 6.8 for rat intestinal maltase using maltose. The released D-glucose was determined colorimetrically using the Glucose CII-test Wako (Wako Pure Chemical Ind.; Osaka, Japan). Other glycosidase activities were determined using an appropriate p-nitrophenyl glycoside as substrate in a buffer solution at the optimal pH value of each enzyme. The reaction was stopped by adding 400 mM Na2CO3. The released p-nitrophenol was measured spectrometrically at 400 nm.

β-Mannosidase (Snail) = experiment: β-Mannosidase (snail) inhibition
Procedure: as §1

[2] = target: T2, α-Galactosidase (Coffee beans) (Coffea arabica, UniProt Q42656); experiment: α-Galactosidase (coffee beans) inhibition
T2 construct: purchased Sigma-Aldrich Chemical Co
Procedure: as §1

[3] = target: T3, β-Galactosidase (Bovine liver) (Bos taurus, UniProt F1MNT6); experiment: β-Galactosidase (bovine liver) inhibition
T3 sequence (F1MNT6 1-469): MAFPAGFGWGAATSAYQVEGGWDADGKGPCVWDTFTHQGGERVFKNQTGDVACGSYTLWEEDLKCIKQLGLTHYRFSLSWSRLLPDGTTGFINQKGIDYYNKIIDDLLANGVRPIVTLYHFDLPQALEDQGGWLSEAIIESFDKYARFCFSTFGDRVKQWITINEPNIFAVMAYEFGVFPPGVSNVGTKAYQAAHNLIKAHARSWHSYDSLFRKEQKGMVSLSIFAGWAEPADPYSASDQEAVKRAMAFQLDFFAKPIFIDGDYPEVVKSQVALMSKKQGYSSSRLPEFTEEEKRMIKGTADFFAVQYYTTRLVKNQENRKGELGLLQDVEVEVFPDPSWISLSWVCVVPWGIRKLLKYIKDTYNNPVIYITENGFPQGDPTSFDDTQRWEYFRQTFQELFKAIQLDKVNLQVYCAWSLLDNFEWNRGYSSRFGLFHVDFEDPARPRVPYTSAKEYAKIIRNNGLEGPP
Procedure: as §1

β-Glucosidase (Almond) = experiment: β-Glucosidase (almond) inhibition
Procedure: as §1

[4] = target: β-N-Acetylgalactosaminidase (HL60); experiment: β-N-Acetylgalactosaminidase (HL60) inhibition
Procedure: as §1

[5] = target: T4, Amyloglucosidase (A. niger) (Aspergillus niger, UniProt P69328); experiment: Amyloglucosidase (A. niger) inhibition
T4 construct: purchased Sigma-Aldrich Chemical Co
Procedure: as §1

[6] = target: β-N-Acetylhexosaminidase (Jack bean); experiment: β-N-Acetylhexosaminidase (Jack bean) inhibition; conditions: β-N-Acetylhexosaminidase (β-GlcNAcase), read-out: IC50
Procedure: as §1

α-Glucosidase (Yeast) = α-Glucosidase (Yeast) (Saccharomyces cerevisiae, UniProt P53341); experiment: α-Glucosidase (yeast) inhibition
Procedure: as §1

[7] = target: β-N-Acetylhexosaminidase (Bovine liver); experiment: β-N-Acetylhexosaminidase (bovine liver) inhibition; conditions: β-N-Acetylhexosaminidase (β-GlcNAcase), read-out: IC50
Procedure: as §1

α-Glucosidase (Rice) = target: T5, α-Glucosidase (Rice) (Oryza sativa subsp. japonica, UniProt Q653V7); experiment: α-Glucosidase (rice) inhibition
T5 construct: purchased Sigma-Aldrich Chemical Co
Procedure: as §1

[8] = target: α-L-Rhamnosidase (P. decumbens); experiment: α-L-Rhamnosidase (P. decumbens) inhibition
Procedure: as §1

[9] = target: β-N-Acetylhexosaminidase (HL60); experiment: β-N-Acetylhexosaminidase (HL60) inhibition; conditions: for IC50: β-N-Acetylhexosaminidase (β-GlcNAcase); for Inhibition % at 1000 μM: β-N-Acetylhexosaminidase
Procedure: as §1

[10] = target: T6, β-Glucuronidase (E. coli) (Escherichia coli, UniProt P05804); experiment: β-Glucuronidase (E. coli) inhibition
T6 construct: purchased Sigma-Aldrich Chemical Co
Procedure: as §1

[11] = target: T7, β-Glucuronidase (Bovine liver) (Bos taurus, UniProt A3KMY8); experiment: β-Glucuronidase (bovine liver) inhibition
T7 construct: purchased Sigma-Aldrich Chemical Co; host or cells: bovine liver
T7 sequence (A3KMY8 1-652): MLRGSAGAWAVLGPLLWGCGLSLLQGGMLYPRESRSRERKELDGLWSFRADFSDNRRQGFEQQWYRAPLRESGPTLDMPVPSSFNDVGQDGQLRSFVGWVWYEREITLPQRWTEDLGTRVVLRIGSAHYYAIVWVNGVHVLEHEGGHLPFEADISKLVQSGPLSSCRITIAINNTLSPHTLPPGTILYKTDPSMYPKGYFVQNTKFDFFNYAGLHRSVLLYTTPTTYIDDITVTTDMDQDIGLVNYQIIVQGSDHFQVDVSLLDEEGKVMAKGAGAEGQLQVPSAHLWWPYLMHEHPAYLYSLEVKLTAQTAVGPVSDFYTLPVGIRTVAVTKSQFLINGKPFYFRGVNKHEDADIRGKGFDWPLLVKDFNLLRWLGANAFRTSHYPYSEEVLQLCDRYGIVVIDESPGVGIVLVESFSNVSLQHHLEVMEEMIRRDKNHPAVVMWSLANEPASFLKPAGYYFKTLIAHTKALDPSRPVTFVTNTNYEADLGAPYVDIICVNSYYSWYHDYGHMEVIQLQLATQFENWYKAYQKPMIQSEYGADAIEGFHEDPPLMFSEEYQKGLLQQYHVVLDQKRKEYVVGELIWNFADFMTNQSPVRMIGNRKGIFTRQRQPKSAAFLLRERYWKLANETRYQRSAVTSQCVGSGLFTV
Procedure: as §1

[12] = target: β-Glucosidase (Bovine liver); experiment: β-Glucosidase (bovine liver) inhibition
Procedure: as §1

[13] = 1000 μM, read-out: Inhibition % at 1000 μM
[14] = read-out: Inhibition % at 1000 μM
[15] = α-Glucosidase, Yeast, read-out: IC50

Chain of α-Glucosidase (Yeast) (P53341 whole entry): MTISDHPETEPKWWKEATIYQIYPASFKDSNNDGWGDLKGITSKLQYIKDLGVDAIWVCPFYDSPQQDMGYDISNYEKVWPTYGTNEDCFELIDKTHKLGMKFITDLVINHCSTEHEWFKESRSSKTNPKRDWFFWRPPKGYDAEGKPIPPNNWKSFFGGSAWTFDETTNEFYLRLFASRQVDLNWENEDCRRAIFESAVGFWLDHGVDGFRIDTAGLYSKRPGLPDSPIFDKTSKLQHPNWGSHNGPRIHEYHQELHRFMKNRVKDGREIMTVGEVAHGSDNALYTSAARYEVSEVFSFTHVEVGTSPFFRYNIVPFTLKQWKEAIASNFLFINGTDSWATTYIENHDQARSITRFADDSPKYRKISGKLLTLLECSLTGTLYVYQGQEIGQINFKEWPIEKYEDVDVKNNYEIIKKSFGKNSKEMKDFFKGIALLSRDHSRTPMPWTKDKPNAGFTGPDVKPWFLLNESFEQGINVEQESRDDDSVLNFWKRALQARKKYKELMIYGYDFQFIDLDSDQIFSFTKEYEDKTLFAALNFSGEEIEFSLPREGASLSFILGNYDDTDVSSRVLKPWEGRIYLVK
T6 sequence (P05804 whole entry): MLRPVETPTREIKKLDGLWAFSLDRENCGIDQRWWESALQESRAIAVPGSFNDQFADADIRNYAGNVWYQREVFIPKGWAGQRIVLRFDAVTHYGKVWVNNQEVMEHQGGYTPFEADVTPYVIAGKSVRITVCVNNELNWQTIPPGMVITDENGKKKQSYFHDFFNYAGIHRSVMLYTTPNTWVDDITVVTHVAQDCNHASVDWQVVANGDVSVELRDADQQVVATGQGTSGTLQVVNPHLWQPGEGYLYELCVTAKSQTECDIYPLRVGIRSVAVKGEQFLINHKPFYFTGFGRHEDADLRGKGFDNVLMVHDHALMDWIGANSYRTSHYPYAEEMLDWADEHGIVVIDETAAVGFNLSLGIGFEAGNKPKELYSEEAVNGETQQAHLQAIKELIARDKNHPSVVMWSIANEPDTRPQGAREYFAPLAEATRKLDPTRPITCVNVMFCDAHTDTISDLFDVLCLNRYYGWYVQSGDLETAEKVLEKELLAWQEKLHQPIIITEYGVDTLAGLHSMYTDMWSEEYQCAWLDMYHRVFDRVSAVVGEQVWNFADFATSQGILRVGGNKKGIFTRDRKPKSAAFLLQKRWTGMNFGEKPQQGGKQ
T4 sequence (P69328 25-640): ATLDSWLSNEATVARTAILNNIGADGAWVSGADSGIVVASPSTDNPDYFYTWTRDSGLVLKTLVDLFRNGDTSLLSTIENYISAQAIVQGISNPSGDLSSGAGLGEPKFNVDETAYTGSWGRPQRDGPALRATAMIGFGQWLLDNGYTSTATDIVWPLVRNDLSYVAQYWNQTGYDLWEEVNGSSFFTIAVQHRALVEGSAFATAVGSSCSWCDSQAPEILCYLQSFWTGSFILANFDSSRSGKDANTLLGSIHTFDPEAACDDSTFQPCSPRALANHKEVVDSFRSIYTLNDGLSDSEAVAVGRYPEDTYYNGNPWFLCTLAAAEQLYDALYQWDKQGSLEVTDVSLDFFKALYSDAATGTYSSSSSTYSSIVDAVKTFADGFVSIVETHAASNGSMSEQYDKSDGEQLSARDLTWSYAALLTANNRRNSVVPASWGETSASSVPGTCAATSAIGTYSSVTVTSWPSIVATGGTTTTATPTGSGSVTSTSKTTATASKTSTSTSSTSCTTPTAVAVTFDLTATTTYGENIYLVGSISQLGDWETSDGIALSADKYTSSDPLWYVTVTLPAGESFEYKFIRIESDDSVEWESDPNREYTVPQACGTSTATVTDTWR
T5 sequence (Q653V7 34-885): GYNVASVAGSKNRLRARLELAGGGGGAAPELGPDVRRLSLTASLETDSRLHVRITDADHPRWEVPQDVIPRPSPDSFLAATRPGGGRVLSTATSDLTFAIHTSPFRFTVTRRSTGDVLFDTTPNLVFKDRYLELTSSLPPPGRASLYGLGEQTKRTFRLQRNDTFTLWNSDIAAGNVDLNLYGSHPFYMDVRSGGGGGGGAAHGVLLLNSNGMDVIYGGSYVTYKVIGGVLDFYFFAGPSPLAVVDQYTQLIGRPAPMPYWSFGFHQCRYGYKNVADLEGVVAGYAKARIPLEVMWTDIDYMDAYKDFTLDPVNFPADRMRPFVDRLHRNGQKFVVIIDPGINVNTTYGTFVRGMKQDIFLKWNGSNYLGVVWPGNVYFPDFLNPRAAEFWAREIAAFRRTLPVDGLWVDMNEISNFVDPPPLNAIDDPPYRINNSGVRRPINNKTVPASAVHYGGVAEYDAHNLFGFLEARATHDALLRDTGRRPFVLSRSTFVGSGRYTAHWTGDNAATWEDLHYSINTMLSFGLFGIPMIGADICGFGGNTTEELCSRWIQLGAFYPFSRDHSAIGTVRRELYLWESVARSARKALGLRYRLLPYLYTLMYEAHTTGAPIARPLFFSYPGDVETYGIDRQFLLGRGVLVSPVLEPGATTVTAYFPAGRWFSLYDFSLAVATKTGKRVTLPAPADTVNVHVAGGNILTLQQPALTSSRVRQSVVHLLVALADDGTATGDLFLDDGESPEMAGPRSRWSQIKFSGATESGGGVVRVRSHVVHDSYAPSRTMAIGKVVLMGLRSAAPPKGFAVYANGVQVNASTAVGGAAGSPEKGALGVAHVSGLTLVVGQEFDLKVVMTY
T2 sequence (Q42656 16-378): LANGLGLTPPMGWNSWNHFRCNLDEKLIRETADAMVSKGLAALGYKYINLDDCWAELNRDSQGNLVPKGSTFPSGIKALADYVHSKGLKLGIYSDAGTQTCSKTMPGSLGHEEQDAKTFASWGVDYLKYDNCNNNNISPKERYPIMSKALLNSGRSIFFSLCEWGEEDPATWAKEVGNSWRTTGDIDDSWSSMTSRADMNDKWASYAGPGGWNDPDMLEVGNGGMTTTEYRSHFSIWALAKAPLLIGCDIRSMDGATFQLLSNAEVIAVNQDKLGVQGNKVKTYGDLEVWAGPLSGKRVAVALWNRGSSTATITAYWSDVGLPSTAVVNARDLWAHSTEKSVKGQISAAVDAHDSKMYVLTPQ

| SMILES | inhibition at 1000 µM [1, 13] [%] | inhibition at 1000 µM ([1]; read-out: IC50) [%] | IC50 (β-Mannosidase (Snail)) | Inhibition % at 1000 μM (β-Mannosidase (Snail)) [%] | inhibition at 1000 µM [2, 13] [%] | inhibition at 1000 µM ([2]; read-out: IC50) [%] | inhibition at 1000 µM [3, 13] [%] | inhibition at 1000 µM ([3]; read-out: IC50) [%] | IC50 (β-Glucosidase (Almond)) | Inhibition % at 1000 μM (β-Glucosidase (Almond)) [%] | IC50 [4] | Inhibition % at 1000 μM [4] [%] | inhibition at 1000 µM [5, 13] [%] | inhibition at 1000 µM ([5]; read-out: IC50) [%] | IC50 [6] [µM] | inhibition at 1000 µM (α-Glucosidase (Yeast); [14]) [%] | inhibition at 1000 µM (α-Glucosidase (Yeast); [15]) [%] | IC50 [7] [µM] | inhibition at 1000 µM (α-Glucosidase (Rice); [13]) [%] | inhibition at 1000 µM (α-Glucosidase (Rice); read-out: IC50) [%] | also measured |
| --- | --- | --- | --- | --- | --- | --- | --- | --- | --- | --- | --- | --- | --- | --- | --- | --- | --- | --- | --- | --- | --- |
| CC(=O)NC[C@H]1N[C@H](CO)[C@H](O)[C@H]1O [F-10b, 1-N-acetylamino-2,5-imino-1,2,5-trideoxy-D-iditol hydrochloride] | 3.9 | < 50 | NI (No Inhibition (less than 50% at 1000 μM)) | 0 | 0 | < 50 | 4.2 | < 50 | NI (No Inhibition (less than 50% at 1000 μM)) | 19.8 | NI (No Inhibition (less than 50% at 1000 μM)) | 36.1 | 5.7 | < 50 | 98 | 0 | < 50 | 652 | 0 | < 50 | IC50 [8]: NI (No Inhibition (less than 50% at 1000 μM)); Inhibition % at 1000 μM [8]: 3.0%; IC50 [9]: NI (No Inhibition (less than 50% at 1000 μM)); Inhibition % at 1000 μM [9]: 16.6%; inhibition at 1000 µM [10, 13]: 0%; inhibition at 1000 µM ([10]; read-out: IC50): < 50%; inhibition at 1000 µM [11, 13]: 0%; inhibition at 1000 µM ([11]; read-out: IC50): < 50%; IC50 [12]: NI (No Inhibition (less than 50% at 1000 μM)); Inhibition % at 1000 μM [12]: 0% |
| CC(=O)NC[C@H]1N[C@@H](CO)[C@H](O)[C@@H]1O [G-10, 1-N-acetylamino-2,5-imino-1,2,5-trideoxy-D-allitol hydrochloride] | 11.5 | < 50 | NI (No Inhibition (less than 50% at 1000 μM)) | 0 | 0 | < 50 | 2.9 | < 50 | NI (No Inhibition (less than 50% at 1000 μM)) | 15.3 | NI (No Inhibition (less than 50% at 1000 μM)) | 15.9 | 7.6 | < 50 | 26 | 0 | < 50 | 299 | 0 | < 50 | IC50 [8]: NI (No Inhibition (less than 50% at 1000 μM)); Inhibition % at 1000 μM [8]: 9.5%; IC50 [9]: NI (No Inhibition (less than 50% at 1000 μM)); Inhibition % at 1000 μM [9]: 18.8%; inhibition at 1000 µM [10, 13]: 0%; inhibition at 1000 µM ([10]; read-out: IC50): < 50%; inhibition at 1000 µM [11, 13]: 0%; inhibition at 1000 µM ([11]; read-out: IC50): < 50%; IC50 [12]: NI (No Inhibition (less than 50% at 1000 μM)); Inhibition % at 1000 μM [12]: 0% |
